Source: publication PMC11982470, “The 2-methylcitrate cycle and the glyoxylate shunt in Pseudomonas aeruginosa are linked through enzymatic redundancy” (The Journal of Biological Chemistry, 2025)

Experiments:
AceAPa (ICLPa) [1] = molecular target: T1, AceAPa (ICLPa) (Pseudomonas aeruginosa, UniProt Q9I0K4); experiment: LDH-coupled assay, NADH oxidation at […] nm; assay type: biochemical; conditions: 50 mM Hepes pH 7.5, 2.5 mM MgCl2, 5 mM DTT, 37 °C; racemic threo substrate
T1 construct: gene PA2634; full-length, N-terminal His6 tag TEV-cleaved (pET-19m), expressed in E. coli
T1 sequence (Q9I0K4 1-531): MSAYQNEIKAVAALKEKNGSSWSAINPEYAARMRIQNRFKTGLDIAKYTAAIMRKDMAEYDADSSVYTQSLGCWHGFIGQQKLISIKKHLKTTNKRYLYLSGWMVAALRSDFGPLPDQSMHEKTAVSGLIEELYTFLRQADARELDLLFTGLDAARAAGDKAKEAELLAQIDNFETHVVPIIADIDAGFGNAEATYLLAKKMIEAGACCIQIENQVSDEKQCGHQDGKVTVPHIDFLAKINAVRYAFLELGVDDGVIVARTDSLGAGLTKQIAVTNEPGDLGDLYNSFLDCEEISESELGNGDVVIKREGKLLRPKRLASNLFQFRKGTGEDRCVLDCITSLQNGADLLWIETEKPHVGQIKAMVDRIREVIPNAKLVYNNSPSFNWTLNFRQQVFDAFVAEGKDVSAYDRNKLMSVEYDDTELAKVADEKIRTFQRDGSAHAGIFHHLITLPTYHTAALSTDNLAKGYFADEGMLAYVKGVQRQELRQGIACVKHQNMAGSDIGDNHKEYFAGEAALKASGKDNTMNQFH

PrpBPa = molecular target: T2, PrpBPa (Pseudomonas aeruginosa, UniProt Q9I5E2); experiment: LDH-coupled assay, inhibitor screen, relative activity; assay type: biochemical; conditions: 1 mM compound, 5 min preincubation; pH 7.5, Mg2+, DTT, 37 °C
T2 construct: gene prpB; full-length, N-terminal His6 tag TEV-cleaved (pET-19m), expressed in E. coli; homotetramer (dimer of dimers)
T2 sequence (Q9I5E2 1-298): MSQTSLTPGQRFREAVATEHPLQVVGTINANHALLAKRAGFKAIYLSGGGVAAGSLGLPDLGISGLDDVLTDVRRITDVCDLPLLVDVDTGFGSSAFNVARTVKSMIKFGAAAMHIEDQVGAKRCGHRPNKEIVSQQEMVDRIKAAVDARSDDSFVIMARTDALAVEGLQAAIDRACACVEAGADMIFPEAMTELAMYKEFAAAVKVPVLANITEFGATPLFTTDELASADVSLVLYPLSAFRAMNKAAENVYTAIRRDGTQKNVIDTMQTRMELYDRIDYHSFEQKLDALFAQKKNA

AceAPa (ICLPa) [2] = molecular target: T1, AceAPa (ICLPa); experiment: phenylhydrazine-based isocitrate lyase assay, […] nm; assay type: biochemical; conditions: 4 mM DL-isocitric acid, 25 mM imidazole pH 7.0, 10 mM EDTA, 5 mM MgCl2
purified protein = substrate: CC(O)(C(=O)O)C(CC(=O)O)C(=O)O; experiment: purified protein; assay type: biochemical, Pseudomonas aeruginosa; conditions: 50 mM Hepes pH 7.5, 2.5 mM MgCl2, 5 mM DTT, 37 °C, DTT-pretreated enzyme, racemic threo substrate
[3] = molecular target: the molecule itself; experiment: crystal structure; apo-PrpBPa (1.8 Å) and PrpBPa with Mg2+/pyruvate (1.76 Å, crystal soak); tetramer in the asymmetric unit; crystals from Tris-HCl pH 8.5, PEG 4000, LiSO4, 5 mM DTT, 19 °C

Molecule	relative activity at 1 mM (PrpBPa)	further results
CC(O)(C(=O)O)C(CC(=O)O)C(=O)O (racemic) [threo-2-methylisocitrate]	–	LDH-coupled assay, NADH oxidation at 340 nm (AceAPa (ICLPa) [1]): purified AceAPa demonstrated robust 2-MICL activity in vitro
O=C(O)CC[N+](=O)[O-] [3-nitropropionic acid]	3-nitropropionic acid was also a potent inhibitor of PrpBPa	–
O=C[C@H](O)COP(=O)(O)O [D-glyceraldehyde 3-phosphate]	α-ketoglutarate, cis-aconitic acid, and D-glyceraldehyde 3-phosphate were all potent inhibitors of PrpBPa	–
O=C(O)/C=C(/CC(=O)O)C(=O)O [cis-aconitic acid]	α-ketoglutarate, cis-aconitic acid, and D-glyceraldehyde 3-phosphate were all potent inhibitors of PrpBPa	–
O=C(O)CCC(=O)C(=O)O [α-ketoglutarate]	α-ketoglutarate, cis-aconitic acid, and D-glyceraldehyde 3-phosphate were all potent inhibitors of PrpBPa	–
O=C(O)/C=C\C(=O)O [Maleic acid]	Maleic acid was a nonphysiological inhibitor	–
O=C(O)CC(C(=O)O)C(O)C(=O)O (racemic) [DL isocitric acid]	–	phenylhydrazine-based isocitrate lyase assay, 324 nm (AceAPa (ICLPa) [2]): could catalyze the cleavage of isocitrate into glyoxylate and succinate
2-methylisocitrate lyase PrpB from Pseudomonas aeruginosa (PrpBPa) (enzyme, Pseudomonas aeruginosa PAO1, 2-methylisocitrate lyase PrpB, Pseudomonas aeruginosa PAO1, locus PA0796, PCR-amplified from PAO1 genomic DNA and cloned into pET-19m; 32.1 kDa; In the crystal structures the termini and the active site loop (residues 121-131) are not resolved; also called 2-MICL; PA0796; source: E. coli, purified (Ni-NTA; His6 tag removed with TEV protease); not shown: His6, N-terminal, cleaved) MSQTSLTPGQRFREAVATEHPLQVVGTINANHALLAKRAGFKAIYLSGGGVAAGSLGLPDLGISGLDDVLTDVRRITDVCDLPLLVDVDTGFGSSAFNVARTVKSMIKFGAAAMHIEDQVGAKRCGHRPNKEIVSQQEMVDRIKAAVDARSDDSFVIMARTDALAVEGLQAAIDRACACVEAGADMIFPEAMTELAMYKEFAAAVKVPVLANITEFGATPLFTTDELASADVSLVLYPLSAFRAMNKAAENVYTAIRRDGTQKNVIDTMQTRMELYDRIDYHSFEQKLDALFAQKKNA	–	Km (purified protein): 632 ± 158 µM; kcat (purified protein): 48.2 ± 4.2 s⁻¹; stoichiometry N [3]: 4
